Earlier results on two compounds are cited in patent publication US6525095B1, “Propionate feed supplement” (New Mexico State University Technology Transfer Corporation, priority 2000, dated 2003).

In the data set the test system is swine. To be noted: for Average daily gain / Average feed intake per day / Total insulin: 200 ppb chromium in feed.

In the case of chromium (III) tripicolinate, the Average daily gain entry is recorded as “decrease”, the “Average feed intake per day” value is on record as “decrease” and the Total insulin entry is on record as “remained unaffected”. Moreover, the Glucose half-life result (during the insulin challenge) was “decreased”.
As to `CCC(=O)[O-].CCC(=O)[O-].CCC(=O)[O-].[Cr+3]` [chromium (III) propionate], the Average daily gain entry was “decrease”, the “Average feed intake per day” value is given as “decrease” and the Total insulin result is “remained unaffected”. Moreover, for the setting “during the insulin challenge”, the Glucose clearance entry is reported as “increased slightly more” and the Glucose half-life result is recorded as “decreased”.
